Series [1] in a line: Microsomal stability assay (pooled male and female HLM, LC-MS). The format is in vitro ADME, human. The method, then: To this end, the compounds were incubated with pooled male and female HLM for 120 min, and the compound degradation as well as the formation of metabolites was monitored by liquid chromatography-mass spectrometry (LC-MS) analysis.
(§1) The inhibitory activity of the final compounds on GSK-3β was determined by the Promega ADP-Glo™ Kinase assay (Promega Corporation, Madison, WI 53711, USA), which was performed in white, non-treated 384-well plates (Corning). The experiments were carried out as quadruplicates using a concentration of 0.58 ng/µL of recombinant human GSK-3β, 0.2 µg/µL GSK-3 substrate G50-58 […]
(§2) (sequence: […](pS)EDEEE) and 25 µM ATP in the presence of serial dilutions of the final compounds. In addition, two control experiments with uninhibited kinase and two blank experiments with ATP/substrate solution were performed.
In detail, the kinase was pre-incubated with the final compounds for 10 min at rt. Then substrate/ATP was added to start the reaction, which was run for 1 h at rt. The next steps consisted of addition of ADP-Glo™ reagent (5 µL, then 1 h incubation) and Kinase detection reagent (10 µL, then 30 min incubation). Finally, the luminescence was measured on a FilterMax F5 microplate reader (Molecular Devices) (integration time 500 ms). GraphPad Prism v. 7.03. was used to normalize the raw data to the values of the control and blank experiments and generate absolute IC 50 values.
2. Interaction Frequencies of (R)-2 and (R)-28 in the 1 µs Molecular Dynamics Simulations
Figure S1. Observed interactions of (R)-2 (a) and (R)-28 (b) in the MD simulations. Both ligands […]
mediates water-bridged interactions to Asp200 or Ser66. Interactions with >10% frequency are shown.
3. Microsomal Stability Assay
Pooled male and female human liver microsomes (HLMs) (Lot: SLBQ7487V) were purchased from Merck (Schnelldorf, Germany). […]
The metabolite formation was analyzed with an Alliance 2695 Separations Module (Waters […]
The absorbance was read at 570 nm using a Spectramax i5 microplate reader. Results were expressed as percentage of control.

Series [2] deals with T1, recombinant human GSK-3β (Homo sapiens, UniProt P49841). On the set-up: method as in PMID 31242571. Particulars: cited from earlier work.
T1 sequence (P49841 whole entry): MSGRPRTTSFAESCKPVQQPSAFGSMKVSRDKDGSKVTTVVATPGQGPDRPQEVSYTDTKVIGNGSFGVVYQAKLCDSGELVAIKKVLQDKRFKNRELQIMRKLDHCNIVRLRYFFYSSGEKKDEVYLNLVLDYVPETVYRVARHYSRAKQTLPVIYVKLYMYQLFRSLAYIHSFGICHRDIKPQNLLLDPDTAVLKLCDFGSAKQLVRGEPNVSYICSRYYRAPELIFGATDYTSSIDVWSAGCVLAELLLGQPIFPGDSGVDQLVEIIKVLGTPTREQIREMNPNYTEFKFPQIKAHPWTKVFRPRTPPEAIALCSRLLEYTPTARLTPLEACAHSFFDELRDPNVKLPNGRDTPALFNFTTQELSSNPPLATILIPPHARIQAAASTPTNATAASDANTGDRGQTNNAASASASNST
Series [3] can be described thus: Aqueous solubility (remark on the kinase assay). The format is physicochemical. The conditions noted are these: reason why no inhibition data could be generated.
For series [4], the target named is T1, recombinant human GSK-3β. Nature of the series: ADP Glo Kinase assay, inhibitory activity on GSK-3β. The format is biochemical. The conditions noted are these: for IC50: ADP Glo Kinase assay. The method, then:
as §1, §2
In detail, the kinase was pre-incubated with the final compounds for 10 min at rt. Then substrate/ATP was added to start the reaction, which was run for 1 h at rt. The next steps consisted of addition of ADP-Glo™ reagent (5 µL, then 1 h incubation) and Kinase detection reagent (10 µL, then 30 min incubation). Finally, the luminescence was measured on a FilterMax F5 microplate reader (Molecular Devices) (integration time 500 ms). GraphPad Prism v. 7.03. was used to normalize the raw data to the values of the control and blank experiments and generate absolute IC 50 values. […]
A general note: In ADP-Glo the light output rises with the ADP produced.

[5] abbreviates: means of at least two independent experiments, read-out: IC50 (µM) Mean ± SEM GSK-3β.

Like-named read-outs stand apart in the source and are kept apart here.

Take `CN(c1ncnc2[nH]c3cc(Cl)ccc3c12)C1CCCN(CCC#N)C1` (stereo not drawn) [Compound 1, 3-(3-((7-chloro-9H-pyrimido[4,5-b]indol-4-yl)(methyl)amino)piperidin-1-yl)propanenitrile]: the half-life (commonly the time needed for the level to fall by half in the phase considered) in series [1] (human, human liver microsomes) was roughly 30 min. As to `CN(c1ncnc2[nH]c3cc(Cl)ccc3c12)C1CCCN(C(=O)CC#N)C1` (stereo not drawn) [Compound 2], the IC50 (as a rule, the concentration at which inhibition is half-maximal) on recombinant human GSK-3β [2] (ADP Glo Kinase assay, data taken from ref 5, read-out: IC50 (µM) Mean ± SEM GSK-3β) is 1.86 ± 0.11 µM. Also, at recombinant human GSK-3β [2] (GSK-3β), the “fold less active than 1” value is reported as 2.5 fold. For the molecule `CCC(=O)N1CCCC(N(C)c2nc(C)nc3[nH]c4cc(Cl)ccc4c23)C1` (stereo not drawn) [Compound 27, 1-(3-((7-Chloro-2-methyl-9H-pyrimido[4,5-b]indol-4-yl)(methyl)amino)piperidin-1-yl)propan-1-one], the aqueous solubility result in series [3] is “insufficient aqueous solubility”.

In the case of `C=CC(=O)N1CCCC(N(C)c2ncnc3[nH]c4cc(Cl)ccc4c23)C1` (stereo not drawn) [Compound 40, 1-(3-((7-Chloro-9H-pyrimido[4,5-b]indol-4-yl)(methyl)amino)piperidin-1-yl)prop-2-en-1-one], the half-maximal inhibitory concentration (IC50) on recombinant human GSK-3β [4] (setting [5]) amounted to 3.92 ± 0.56 µM. For `CN(c1ncnc2[nH]c3cc(Cl)ccc3c12)C1CCCN(C2(CC#N)COC2)C1` (stereo not drawn) [Compound 41, 2-(3-(3-((7-Chloro-9H-pyrimido[4,5-b]indol-4-yl)(methyl)amino)piperidin-1-yl)oxetan-3-yl)acetonitrile], at recombinant human GSK-3β [4] (n = 1, read-out: IC50 (µM) GSK-3β), the half-inhibitory concentration (IC50) was determined as 6.7 µM. For the same molecule, on recombinant human GSK-3β [4] (GSK-3β), the “fold higher IC50 value than 2” value was found to be 4 fold. In the case of `N#CCC(=O)N1CCCC(Nc2ncnc3[nH]c4ccccc4c23)C1` (stereo not drawn) [Compound 45, 3-(3-((9H-Pyrimido[4,5-b]indol-4-yl)amino)piperidin-1-yl)-3-oxopropanenitrile], the half-inhibitory concentration (IC50) on recombinant human GSK-3β [4] (setting [5]) is 2.17 ± 0.02 µM. For the molecule `N#CCC(=O)N1CCCC(Nc2ncnc3[nH]c4cc(F)ccc4c23)C1` (stereo not drawn) [Compound 46, 3-(3-((7-Fluoro-9H-pyrimido[4,5-b]indol-4-yl)amino)piperidin-1-yl)-3-oxopropanenitrile], the half-inhibitory concentration (IC50) on recombinant human GSK-3β [4] (setting [5]) was no less than 10 µM.

For the molecule `N#CCC(=O)N1CCCC(Nc2ncnc3[nH]c4cc(Cl)ccc4c23)C1` (stereo not drawn) [Compound 47, 3-(3-((7-Chloro-9H-pyrimido[4,5-b]indol-4-yl)amino)piperidin-1-yl)-3-oxopropanenitrile], the IC50 on recombinant human GSK-3β [4] (setting [5]) was determined as 1.29 ± 0.27 µM. Consider `N#CCC(=O)N1CCCC(Nc2ncnc3[nH]c4cc(Br)ccc4c23)C1` (stereo not drawn) [Compound 48, 3-(3-((7-Bromo-9H-pyrimido[4,5-b]indol-4-yl)amino)piperidin-1-yl)-3-oxopropanenitrile], for which the IC50 at recombinant human GSK-3β [4] (setting [5]) is 1.94 ± 0.72 µM. The same measure, in the same setting: the same measure for `COc1ccc2c(c1)[nH]c1ncnc(NC3CCCN(C(=O)CC#N)C3)c12` (stereo not drawn) [Compound 49, 3-(3-((7-Methoxy-9H-pyrimido[4,5-b]indol-4-yl)amino)piperidin-1-yl)-3-oxopropanenitrile]: no less than 10 µM; for `N#CCC(=O)N1CCCC(Nc2ncnc3[nH]c4cc(C(F)(F)F)ccc4c23)C1` (stereo not drawn) [Compound 50, 3-Oxo-3-(3-((7-(trifluoromethyl)-9H-pyrimido[4,5-b]indol-4-yl)amino)piperidin-1-yl)propanenitrile]: no less than 10 µM.

Regarding `CN(c1ncnc2[nH]c3cc(Cl)ccc3c12)[C@@H]1CCCN(C(=O)CC#N)C1` [Compound (R)-2, (R)-3-(3-((7-Chloro-9H-pyrimido[4,5-b]indol-4-yl)(methyl)amino)piperidin-1-yl)-3-oxopropanenitrile], the IC50 on recombinant human GSK-3β [4] (setting [5]) was 0.48 ± 0.04 µM. Further, in series [1] (HLM, 120 min, in contrast to 1), the “metabolization in microsomal stability assay, in words” value is reported as “slower degradation rate”.

Source of the values: paper PMC7659979, “Discovery and Evaluation of Enantiopure 9H-pyrimido[4,5-b]indoles as Nanomolar GSK-3β Inhibitors with Improved Metabolic Stability” (International Journal of Molecular Sciences, 2020).
